Test results from US7282347B2, “Method for extracting quantitative information relating to interactions between cellular components” (Fisher Bioimage APS, priority 2000, dated 2007).
Entries after “also recorded” stand apart in the source; their conditions may differ. Where two headings read alike, the source gives them in different places. Each block holds one compound with its values, some of them ahead of it.

Tests used:
[1] = target: T1, Cys1 domain of PKCgamma (Cys1-EGFP) (Homo sapiens, UniProt P05129); assay: redistribution of Cys1-EGFP to the plasma membrane in CHO cells; assay type: cell-based; conditions: 100 nM PMA, 5 minutes
T1 construct: the 90 N-terminal amino acids of human PKCgamma (the Cys1 domain); expressed in transfected cells; host or cells: CHO
Procedure: Time-lapse images of CHO cells expressing Cys1-EGFP, the fusion of EGFP to the C-terminal of the cys1 domain from human protein kinase C isoform gamma, before (a) and after 5 minutes treatment with 100 nM PMA.

[2] = target: T2, Cys1-hGrb2 anchor probe and EGFP-Sos-Cterm detectable probe (Homo sapiens, UniProt P05129+P62993); assay: redistribution trap: CHO cells expressing Cys1-hGrb2 anchor probe and EGFP-Sos-Cterm detectable probe; assay type: cell-based; conditions: 100 nM PMA, 5 minutes
T2 construct: the 90 N-terminal amino acids of human PKCgamma (the Cys1 domain); expressed in transfected cells; host or cells: CHO
Procedure: (§1) This example describes the creation of another cell line suitable for screening compounds against the interaction between Grb2 and the C-terminal sequence of Sos (amino acids 1067 to 1332 of Sos). This is the same interaction pair described in Example 6, except that the anchor probe is based upon the Cys1 domain of protein kinase C isoform gamma, and therefore locates in unstimulated cells throughout the cytoplasm and nucleus. When these cells are treated with 100 nM PMA the anchor probe redistributes to the plasma membrane, and if an interaction occurs between anchor and detectable probes, the GFP fluorescence will also be seen to redistribute to the plasma membrane. […] Treatment with PMA is used to confirm that an interaction between anchor and detectable probes occurs in this system, since redistribution of fluorescence to the plasma membrane can only occur if interaction of the two probes has first taken place. This can be checked in CHO cells transfected with EGFP-Sos-Cterm alone, where PMA has no effect on the distribution of fluorescence.
(§2) CHO cells are stably co-transfected with the anchor probe Cys1-hGrb2 and the GFP-labelled detectable probe EGFP-Sos-Cterm as described in Example 2 and Example 6. […] The majority of cells in before PMA treatment have a rather general cytoplasmic and nuclear distribution of fluorescence. […]

[3] = target: T3, Cys1-hGrb2 anchor probe and EGFP-Sos-Cterm detectable probe (Homo sapiens, UniProt P62993); assay: as above; assay type: cell-based; conditions: control cells with EGFP-Sos-Cterm alone, PMA
T3 construct: the 90 N-terminal amino acids of human PKCgamma (the Cys1 domain); expressed in transfected cells; host or cells: CHO
Procedure: as §1, §2

[4] = target: T4, HSPDE4A4-SosA anchor probe and hGrb2-EGFP detectable probe (Homo sapiens, UniProt P27815+Q07890); assay: redistribution trap: CHO cells co-transfected with HSPDE4A4-SosA anchor probe and hGrb2-EGFP detectable probe; assay type: cell-based; conditions: 10 μM RP73401 for 75 minutes in presence of 10 micromolar rolipram
T4 construct: expressed in transfected cells; host or cells: CHO
From the text: Sos is a guanine nucleotide exchange factor responsible for activation Ras-like GTPases, Grb2 an adaptor component responsible for recuiting Sos to the activated receptor. In this example the anchor probe is based on HSPDE4A4. CHO cells are stably co-transfected with anchor probe HSPDE4A4-SosA and “detectable” probe hGrb2-EGFP as described in Example 2 and Example 3. The anchor probe is selected for with zeocin, and the detectable probe with neomycin (G418). […] The transfected cells are a mixed non-clonal population.
The transfected cells are a mixed non-clonal population.

PDE4A4 = PDE4A4 (Homo sapiens, UniProt P27815); assay: formation of dense aggregates (spots) of PDE4A4 in transfected CHO cells; conditions: read-out: EC50 for formation of dense PDE4A4 aggregates (spots) in the cytoplasm
PDE4A4, sequence (P27815 whole entry): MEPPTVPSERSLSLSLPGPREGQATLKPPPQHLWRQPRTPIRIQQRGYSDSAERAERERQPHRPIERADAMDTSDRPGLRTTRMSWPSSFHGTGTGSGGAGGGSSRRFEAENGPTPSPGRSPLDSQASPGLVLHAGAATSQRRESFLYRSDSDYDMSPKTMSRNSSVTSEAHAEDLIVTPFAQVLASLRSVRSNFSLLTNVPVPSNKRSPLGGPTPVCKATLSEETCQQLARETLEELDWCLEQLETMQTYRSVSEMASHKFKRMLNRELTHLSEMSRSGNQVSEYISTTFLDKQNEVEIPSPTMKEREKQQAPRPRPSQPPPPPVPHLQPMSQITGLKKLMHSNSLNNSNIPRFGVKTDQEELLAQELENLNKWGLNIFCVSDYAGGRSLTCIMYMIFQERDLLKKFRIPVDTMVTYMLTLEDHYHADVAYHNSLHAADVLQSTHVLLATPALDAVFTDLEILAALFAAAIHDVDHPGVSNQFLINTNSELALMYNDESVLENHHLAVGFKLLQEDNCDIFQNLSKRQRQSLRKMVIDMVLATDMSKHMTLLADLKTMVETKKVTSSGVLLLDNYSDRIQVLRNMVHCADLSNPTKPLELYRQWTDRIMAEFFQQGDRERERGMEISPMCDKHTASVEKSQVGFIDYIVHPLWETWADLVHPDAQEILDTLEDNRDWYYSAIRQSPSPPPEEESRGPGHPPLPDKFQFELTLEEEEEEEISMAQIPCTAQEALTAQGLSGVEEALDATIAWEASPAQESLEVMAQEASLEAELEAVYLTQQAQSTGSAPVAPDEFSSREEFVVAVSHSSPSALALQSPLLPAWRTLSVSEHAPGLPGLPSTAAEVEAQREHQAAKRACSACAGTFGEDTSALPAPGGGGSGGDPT
Procedure: The amount of fluorescent spots and other accumulations of a transfected probe in a population of cells can be imaged and quantified in an automated fashion to yield a measure of mean number of spots per cell. For this purpose cells are cultured to near 80% to 90% confluence in coverglass chambers or plastic 96-well plates, given the relevant treatment and allowed to respond. At the end of the response period, cells are chemically fixed in 4% formaldehyde buffer (Lillies fixative buffer, pH7.4: Bie and Berntsen A/S, Denmark) for 30 minutes to 2 hours, and then washed three times in phosphate buffered saline (PBS, Life Technologies, Denmark). An alternative simultaneous fixation+permeabilisation method, useful to remove non-localised (i.e. mobile) GFP probe from the cytoplasm, involves a single fixation process incorporating 0.4% to 2% formaldehyde buffer (10% to 50% strength Lillies fixative) plus 0.2% to 1% Triton X-100. The actual concentrations used need to be optimised for the cell type being used; for CHO cells 2% formaldehyde+1% Triton X-100 gives excellent results. The combined fixative+detergent are applied to the cells for 10 to 20 minutes at room temperature. Cells are then washed three times with phosphate buffered saline. […] Fluorescence illumination comes from a 100 W HBO lamp. […]

PKAcat-GFP = assay: forskolin induced PKAcat-GFP translocation quantified by extraction procedure, FLIPR; assay type: cell-based; conditions: Homo sapiens
Procedure: Upon increase in cellular cAMP (e.g. by stimulation of adenylate cyclase activity by forskolin) PKAcat dissociates from its regulatory subunits and spots “dissolves” into the cytosol. The total GFP intensity measured after removing cytosolic PKAcat-GFP through the extraction procedure is indicative of the level of non-activated, non-dissociated PKAcat.
In this example the extraction procedure is used to quantify a forskolin dose response in a PKAcat-GFP assay.
Cells are treated with forskolin in various conc. for 15 min. (remove spots). Cells are extracted (Formalin 0.2%/Triton-x 0.2%). Signal is read in FLIPR.
Dose response on the effect of forskolin to stimulate PKA translocation.

[5] = system: CHO cells stably expressing HSPDE4A4B-GFP; assay: cellular cAMP content (kit RPA538) in CHO cells stably expressing HSPDE4A4B-GFP; assay type: cell-based, Chinese hamster; conditions: rolipram 0.03 μM to 3 μM, 16 to 18 hours
Procedure: (§3) After the incubation period, cAMP content is measured using a commercial kit from Amersham-Pharmacia Biotech, kit # RPA538, according to the manufacturers instructions.
(§4) The amount of cAMP/well was calculated using regression analysis from a cAMP standrad curve, as recommended by the manufacturers of the assay kit.
(§5) After the incubation period, cAMP content is measured using a commercial kit from Amersham-Pharnacia Biotech, kit # RPA538, according to the manufacturers instructions.
CHO cells stably expressing HSPDE4A4B-GFP (see Example 2), and untransfected CHO cells are seeded into individual wells of a 96-well microtiter plate at a density of 1.2×10^5 cells/well, and cultured for 16 to 18 hours in HAM F-12 medium with glutamax, 100 μg penicillin-streptomycin mixture ml^−1 and 10% FBS. […] After the treatment period, cAMP content is measured using a commercial kit from Amersham-Pharmacia Biotech, kit # RPA538, according to the manufacturers instructions.

untransfected CHO cells = assay: cellular cAMP content (kit RPA538) in untransfected CHO cells; assay type: cell-based, Chinese hamster
Procedure: as §3, §4, §5
CHO cells stably expressing HSPDE4A4B-GFP (see Example 2), and untransfected CHO cells are seeded into individual wells of a 96-well microtiter plate at a density of 1.2×10^5 cells/well, and cultured for 16 to 18 hours in HAM F-12 medium with glutamax, 100 μg penicillin-streptomycin mixture ml^−1 and 10% FBS. After 16 to 18 hours incubation, cells are treated for 60 minutes with various concentrations of forskolin. After the treatment period, cAMP content is measured using a commercial kit from Amersham-Pharmacia Biotech, kit # RPA538, according to the manufacturers instructions.

Compound: CCCCCCCCCCCCCC(=O)O[C@@H]1[C@@H](C)[C@@]2(O)[C@@H](C=C(CO)C[C@]3(O)C(=O)C(C)=C[C@@H]23)[C@@H]2C(C)(C)[C@]12OC(C)=O [PMA, phorbol-12-myristate-13-acetate]
redistribution of Cys1-EGFP [1]: redistributes from the cytoplasm and nucleus to the plasma membrane
redistribution of EGFP-Sos-Cterm fluorescence [2]: measurable shift in fluorescence to the plasma membrane
distribution of fluorescence in CHO cells transfected with EGFP-Sos-Cterm alone [3]: no effect

Compound: COc1ccc(C(=O)Nc2c(Cl)cncc2Cl)cc1OC1CCCC1 [RP73401, Piclamilast]
effect on rolipram-induced GFP-bright spots [4]: spots disappear; also recorded: dissolves rolipram-induced spots

EC50 (PDE4A4): 20 nM
Compound: O=c1c2cccnc2n(-c2cccc([N+](=O)[O-])c2)c(=O)n1Cc1ccncc1 [RS25344]

EC50 (PKAcat-GFP; 0.25 h, forskolin 15 min, extraction Formalin 0.2%/Triton-x 0.2%, FLIPR, read-out: ED50 of forskolin dose response in PKAcat-GFP assay): ~3000 nM
EC50 (PKAcat-GFP; FIG. 18 dose response, read-out: calculated EC50 for forskolin to stimulate PKA translocation): 3280 nM
Compound: C=C[C@@]1(C)CC(=O)[C@]2(O)[C@@]3(C)[C@@H](O)CCC(C)(C)[C@@H]3[C@H](O)[C@H](OC(C)=O)[C@@]2(C)O1 [forskolin]

Compound: COc1ccc(C2CNC(=O)C2)cc1OC1CCCC1 (stereo not shown) [rolipram]
cellular cAMP concentration, rolipram treatment [5]: no appreciable increase
cellular cAMP, rolipram 10 μM (untransfected CHO cells; 10 μM rolipram, probably not significant): slight rise
cellular cAMP concentration, rolipram treatment (untransfected CHO cells; rolipram 0.03 μM to 3 μM, 16 to 18 hours): no appreciable increase
